Experimental data taken from US12495798B2, “Nicotinamide compound and herbicidal composition comprising compound” (KOREA RESEARCH INSTITUTE OF CHEMICAL TECHNOLOGY, priority 2019, dated 2025).

Legend:
Assay type in all cases: in vivo
sorghum [1] = experiment: Herbicidal activity test against upland field weeds (foliar treatment test); parameters: key to Foliar treatment herbicidal activity, Sorghum: 0 (no control); 100 (complete control); conditions: 50 g ai/ha, scale 0-100; for plant injury at 50 g/ha: Sorghum
Procedure, shortened: (§1)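 Greenhouse-grown plants (30±5 °C, 14/10 h light/dark) foliar hand-sprayed with compound in 50% acetone, 0.1% Tween-20 at 50 or 75 g a.i./ha. Control visually scored 0 (none) to 100 (complete) versus untreated after 14 days, or 21 days if needed.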

quack grass = experiment: Herbicidal activity test against upland field weeds (soil treatment test); parameters: key to Soil treatment herbicidal activity, quack grass: 0 (no control); 100 (complete control); conditions: 50 g ai/ha, scale 0 (no control) to 100 (complete control)
Procedure, shortened: (§2)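 Pre-emergence soil surface spray, day after sowing, into sandy loam pots with fertilizer; compounds at 50 or 75 g a.i./ha in 50% acetone, 0.1% Tween-20. Greenhouse at 30±5 °C, 14/10 h light/dark; visual control rated 0–100 against untreated after 14 days (21 if needed).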

velvetleaf = experiment: as above; parameters: key to Soil treatment herbicidal activity, velvet leaf: 0 (no control); 100 (complete control); conditions: 50 g ai/ha, scale 0 (no control) to 100 (complete control)
Procedure, shortened: as §2

barnyard grass = experiment: Herbicidal activity test against upland field weeds (foliar treatment test); parameters: key to Foliar treatment herbicidal activity, barnyard grass: 0 (no control); 100 (complete control); conditions: 50 g ai/ha, scale 0-100; for pest or weed control at 50 g/ha: Echinochloa crus-galli
Procedure, shortened: as §1

cocklebur [2] = experiment: Herbicidal activity test against upland field weeds (soil treatment test); parameters: key to Soil treatment herbicidal activity, Cocklebur: 0 (no control); 100 (complete control); conditions: 50 g ai/ha, scale 0 (no control) to 100 (complete control)
Procedure, shortened: as §2

wheat = experiment: Phytotoxicity test for upland field crops (foliar treatment test); parameters: key: 0 (no harm); 9 (complete withered)
Procedure, shortened: (§3)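 Crops grown in greenhouse pots (30±5 °C, 14/10 h light) were foliar-sprayed with compound at 19–300 g a.i./ha in 33% acetone/0.1% Tween-20. Phytotoxicity scored 0 (no harm) to 9 (complete withering) versus untreated control at 7 and 14 days, 21 if needed.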

corn = experiment: as above; parameters: key: 0 (no harm); 9 (complete withered)
Procedure, shortened: as §3

sorghum [3] = experiment: Herbicidal activity test against upland field weeds (soil treatment test); parameters: key to Soil treatment herbicidal activity, Sorghum: 0 (no control); 100 (complete control); conditions: 50 g ai/ha, scale 0 (no control) to 100 (complete control)
Procedure, shortened: as §2

cocklebur [4] = experiment: Herbicidal activity test against upland field weeds (foliar treatment test); parameters: key to Foliar treatment herbicidal activity, Cocklebur: 0 (no control); 100 (complete control); conditions: 50 g ai/ha, scale 0-100; for pest or weed control at 50 g/ha: Xanthium strumarium
Procedure, shortened: as §1

indian jointvetch = experiment: as above; conditions: 50 g ai/ha, scale 0-100
Procedure, shortened: as §1

fall panicum = experiment: as above; conditions: 50 g ai/ha, scale 0-100; for pest or weed control at 50 g/ha: Panicum dichotomiflorum
Procedure, shortened: as §1

rice = experiment: Phytotoxicity test for upland field crops (foliar treatment test); parameters: key: 0 (no harm); 9 (complete withered)
Procedure, shortened: as §3

cotton = experiment: as above; parameters: key: 0 (no harm); 9 (complete withered)
Procedure, shortened: as §3

soybean = experiment: as above; parameters: key: 0 (no harm); 9 (complete withered)
Procedure, shortened: as §3

[5] = 50 g ai/ha, Wheat (7 days after treatment)
[6] = 50 g ai/ha, Wheat (14 days after treatment)
[7] = 100 g ai/ha, Wheat (7 days after treatment)
[8] = 100 g ai/ha, Wheat (14 days after treatment)
[9] = 50 g ai/ha, Corn (7 days after treatment)
[10] = 50 g ai/ha, Corn (14 days after treatment)
[11] = 100 g ai/ha, Corn (7 days after treatment)
[12] = 100 g ai/ha, Corn (14 days after treatment)
[13] = 50 g ai/ha, Rice (7 days after treatment)
[14] = 50 g ai/ha, Rice (14 days after treatment)
[15] = 100 g ai/ha, Rice (7 days after treatment)
[16] = 100 g ai/ha, Rice (14 days after treatment)
[17] = 50 g ai/ha, Cotton (7 days after treatment)
[18] = 50 g ai/ha, Cotton (14 days after treatment)
[19] = 100 g ai/ha, Cotton (7 days after treatment)
[20] = 100 g ai/ha, Cotton (14 days after treatment)
[21] = 50 g ai/ha, Soybean (7 days after treatment)
[22] = 50 g ai/ha, Soybean (14 days after treatment)
[23] = 100 g ai/ha, Soybean (7 days after treatment)
[24] = 100 g ai/ha, Soybean (14 days after treatment)

| SMILES | plant injury at 50 g/ha (sorghum [1]) [%] | Soil treatment herbicidal activity, quack grass (quack grass) | Soil treatment herbicidal activity, velvet leaf (velvetleaf) | pest or weed control at 50 g/ha (barnyard grass) [%] | Soil treatment herbicidal activity, Cocklebur (cocklebur [2]) | Foliar treatment phytotoxicity, Wheat (wheat; [5]) | Foliar treatment phytotoxicity, Wheat (wheat; [6]) | Foliar treatment phytotoxicity, Wheat (wheat; [7]) | Foliar treatment phytotoxicity, Wheat (wheat; [8]) | Foliar treatment phytotoxicity, Corn (corn; [9]) | Foliar treatment phytotoxicity, Corn (corn; [10]) | Foliar treatment phytotoxicity, Corn (corn; [11]) | Foliar treatment phytotoxicity, Corn (corn; [12]) | Soil treatment herbicidal activity, Sorghum (sorghum [3]) | pest or weed control at 50 g/ha (cocklebur [4]) [%] | pest or weed control at 50 g/ha (indian jointvetch) [%] | pest or weed control at 50 g/ha (fall panicum) [%] | Foliar treatment herbicidal activity, barnyard grass (barnyard grass) | Foliar treatment herbicidal activity, Cocklebur (cocklebur [4]) | also measured |
| --- | --- | --- | --- | --- | --- | --- | --- | --- | --- | --- | --- | --- | --- | --- | --- | --- | --- | --- | --- | --- |
| Cn1nnc(CSCc2nc(C(F)F)ccc2C(=O)Nc2nnnn2C)n1 [Compound No. 2-108, 6-(difluoromethyl)-N-(1-methyl-1H-tetrazol-5-yl)-2-((((2-methyl-2H-tetrazol-5-yl)methyl)thio)methyl)nicotinamide] | 70 | 0 | 0 | 60 | 0 | 3 | 3 | 4 | 4 | 0 | 0 | 0 | 0 | 0 | 98 | 80 | 50 | – | – | – |
| Cn1nnc(CS(=O)(=O)Cc2nc(C(F)(F)F)ccc2C(=O)Nc2nnnn2C)n1 [Compound No. 2-105, N-(1-methyl-1H-tetrazol-5-yl)-2-((((2-methyl-2H-tetrazol-5-yl)methyl)sulfonyl)methyl)-6-(trifluoromethyl)nicotinamide] | 20 | 0 | 100 | – | – | 3 | 4 | 4 | 4 | 0 | 0 | 0 | 0 | 0 | 98 | 95 | 50 | 0 | – | pest or weed control at 50 g/ha (cocklebur [2]; Xanthium strumarium): 98% |
| Cn1nnc(CSCc2nc(C(F)(F)F)ccc2C(=O)Nc2nnnn2C)n1 [Compound No. 2-102, N-(1-methyl-1H-tetrazol-5-yl)-2-((((2-methyl-2H-tetrazol-5-yl)methyl)thio)methyl)-6-(trifluoromethyl)nicotinamide] | 70 | 0 | 100 | 95 | – | 0 | 0 | 0 | 1 | 0 | 0 | 0 | 0 | – | – | 98 | 80 | – | 100 | Foliar treatment phytotoxicity, Rice (rice; [13]): 3; Foliar treatment phytotoxicity, Rice (rice; [14]): 3; Foliar treatment phytotoxicity, Rice (rice; [15]): 4; Foliar treatment phytotoxicity, Rice (rice; [16]): 4; Foliar treatment phytotoxicity, Cotton (cotton; [17]): 0; Foliar treatment phytotoxicity, Cotton (cotton; [18]): 0; Foliar treatment phytotoxicity, Cotton (cotton; [19]): 0; Foliar treatment phytotoxicity, Cotton (cotton; [20]): 0; Foliar treatment phytotoxicity, Soybean (soybean; [21]): 0; Foliar treatment phytotoxicity, Soybean (soybean; [22]): 0; Foliar treatment phytotoxicity, Soybean (soybean; [23]): 0; Foliar treatment phytotoxicity, Soybean (soybean; [24]): 0; plant injury at 50 g/ha (sorghum [3]; Sorghum): 20% |
| CCOC(=O)OC(C)n1nnn(C)c1=NC(=O)c1ccc(C(F)(F)F)nc1CSCc1nnn(C)n1 (stereo not shown) [Compound No. 4-10, ethyl (1-(4-methyl-5-((2-((((2-methyl-2H-tetrazol-5-yl)methyl)thio)methyl)-6-(trifluoromethyl)nicotinoyl)imino)-4,5-dihydro-1H-tetrazol-1-yl)ethyl)carbonate] | – | 0 | 100 | – | – | 0 | 0 | 0 | 0 | 2 | 1 | 3 | 1 | 40 | – | – | – | 98 | 100 | Foliar treatment herbicidal activity, Sorghum (sorghum [1]): 100; Foliar treatment herbicidal activity, Indian jointvetch (indian jointvetch): 98; Foliar treatment herbicidal activity, Fall panicum (fall panicum): 95 |
| COc1nc(COCc2nc(C(F)(F)F)ccc2C(=O)Nc2nnnn2C)nn1C [Compound No. 2-129, 2-(((5-methoxy-1-methyl-1H-1,2,4-triazol-3-yl)methoxy)methyl)-N-(1-methyl-1H-tetrazol-5-yl)-6-(trifluoromethyl)nicotinamide] | 40 | 0 | – | 90 | – | 1 | 1 | 2 | 2 | 0 | 0 | 0 | 0 | 0 | 70 | 60 | 50 | – | – | – |
| Cn1nnnc1COc1nc(C(F)(F)F)ccc1C(=S)Nc1nnnn1C [Compound No. 1-43, N-(1-methyl-1H-tetrazol-5-yl)-2-((1-methyl-1H-tetrazol-5-yl)methoxy)-6-(trifluoromethyl)pyridin-3-carbothioamide] | 60 | 0 | – | 95 | 0 | – | – | – | – | – | – | – | – | 0 | 90 | 30 | 95 | – | – | pest or weed control at 50 g/ha (velvetleaf; Abutilon theophrasti, read-out: Soil treatment herbicidal activity, velvet leaf): 90% |
| Cn1cnc(COCc2nc(C(F)F)ccc2C(=O)Nc2nnnn2C)n1 [Compound No. 2-85] | – | – | 20 | – | 25 | 0 | 0 | 2 | 0 | 0 | 0 | 0 | 0 | 0 | – | – | – | 99 | 97 | Foliar treatment herbicidal activity, Sorghum (sorghum [1]): 5; Foliar treatment phytotoxicity, Rice (rice; [13]): 7; Foliar treatment phytotoxicity, Rice (rice; [14]): 7; Foliar treatment phytotoxicity, Rice (rice; [15]): 8; Foliar treatment phytotoxicity, Rice (rice; [16]): 1; Foliar treatment phytotoxicity, Cotton (cotton; [17]): 7; Foliar treatment phytotoxicity, Cotton (cotton; [18]): 7; Foliar treatment phytotoxicity, Cotton (cotton; [19]): 8; Foliar treatment phytotoxicity, Cotton (cotton; [20]): 9; Foliar treatment phytotoxicity, Soybean (soybean; [21]): 4; Foliar treatment phytotoxicity, Soybean (soybean; [22]): 6; Foliar treatment phytotoxicity, Soybean (soybean; [23]): 6; Foliar treatment phytotoxicity, Soybean (soybean; [24]): 7; Foliar treatment herbicidal activity, Indian jointvetch (indian jointvetch): 97; Foliar treatment herbicidal activity, Fall panicum (fall panicum): 84 |
